Earlier results as cited in patent publication US20140288899A1, “C[…] OF BINDING FREE ENERGY, C[…] OF BINDING FREE ENERGY, PROGRAM, SCREENING METHOD OF COMPOUND” (FUJITSU LIMITED, priority 2013, published 2014).

How the values were obtained:
[1] = molecular target: T1, FK506 BINDING PROTEIN (Homo sapiens, UniProt P62942); conditions: calculation value of Wang et al., Biophysical Journal Vol. 91, 2798-2814; restriction with a spring
[2] = molecular target: T1, FK506 BINDING PROTEIN; conditions: experimental value disclosed in Holt et al., J. Am. Chem. Soc. 1993, 115, 9925-9938

T1 sequence (P62942 whole entry): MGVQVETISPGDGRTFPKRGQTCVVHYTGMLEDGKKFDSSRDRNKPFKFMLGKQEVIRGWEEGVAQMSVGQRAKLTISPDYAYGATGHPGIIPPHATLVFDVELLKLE

CCC(C)(C)C(=O)C(=O)N1CCCC[C@H]1C(=O)O[C@H](CCc1ccccc1)c1ccccc1 [1fkg, 1,3-DIPHENYL-1-PROPYL-1-(3,3-DIMETHYL-1,2-DIOXYPENTYL)-2-PIPERIDINE CARBOXYLATE]
binding free energy, calculation result of Comparative Example [1]: -10.3 kcal/mol
binding free energy, experimental value [2]: -10.9 kcal/mol
